{"source": "patent US20210113518A1", "about": "“Composition And Use Thereof Against Drugs Induced Phototoxicity” (AC BIOSCIENCE SA, priority 2018, published 2021)", "assay_type_in_all_cases": "cell-based", "key": {"Balb/c 3T3 fibroblasts": {"tested_on": "Balb/c 3T3 fibroblasts", "assay": "Norfloxacin 3T3 phototoxicity test with or without DHQ treatment (Neutral Red uptake)", "conditions": "for Photoprotective effect against norfloxacin phototoxicity: increasing concentrations in treatment medium, UVA", "method": "The phototoprotective potential of Dihydroquercetin was assessed using a method based on Norfloxacin phototoxicity test on fibroblasts […]. […] The study was aimed at evaluating the photoprotective potential of one test item, dihydroquercetin, against the deleterious effects of UVA exposure in presence of phototoxic substances such as Norfloxacin or chlorpromazin. Briefly, Balb/c 3T3 fibroblasts were maintained in culture for 48 h for formation of monolayers. Norfloxacin 3T3 phototoxicity test was performed in presence or absence of DHQ treatment in different conditions. After another 24 h incubation period, cell viability was determined by Neutral Red uptake. For each condition, cell viability was expressed as percentage relative to untreated solvent controls. Then the dose-response curves (at the EC50 level) obtained for Norfloxacin with or without DHQ treatment was compared to assess DHQ photoprotective potential."}, "human neutrophils [1]": {"tested_on": "human neutrophils", "assay": "Neutrophils degranulation assessed by myeloperoxidase (MPO) release, fMLP stimulation, MPO enzyme immunoassay", "conditions": "fMLP 45 minutes at 37° C.", "method": "Neutrophils were stimulated with formyl-methionyl-leucyl-phenylalanine for 45 minutes at 37° C. MPO released from neutrophils were assayed by using an MPO enzyme immunoassay. [table]"}, "NIH-3T3 fibroblasts": {"tested_on": "NIH-3T3 fibroblasts", "assay": "Chlorpromazine (CPZ)-induced cell phototoxicity under UVA, protective effect", "excerpt": "Chlorpromazine (CPZ) is a neuroleptic drug widely used in medicine because of its tranquilizing and antipsychotic properties. CPZ often causes side effects including cutaneous photosensitization and ocular damage."}, "human neutrophils [2]": {"tested_on": "human neutrophils", "assay": "Polymorphonuclear neutrophils oxidative burst, ROS production by chemiluminescence (PMA activation)", "conditions": "neutrophils primed with TNF-α, activation by 100 ng/ml PMA; luminol chemiluminescence; FIG. 5", "method": "ROS production is measured using a chemiluminescence standard procedure: briefly, one hundred microliters of human neutrophils (4×10^6/mL) were primed with TNF-α at 37° C. for 25 minutes. 100 μL luminol (1 μM final concentration) and HRP (62.5 U/mL final concentration) in HBSS were added, and 150-μL aliquots were transferred to a prewarmed 96-well luminometer plate. Light emission was recorded by a Berthold MicroLumat Plus luminometer (Berthold Technologies, Hartfordshire, United Kingdom) (data output is in relative light units per second)"}}, "data": [{"smiles": "Nc1ccc(C(=O)O)cc1", "note": "[PABA, para-aminobenzoic acid]", "values": [{"measurement": "Photoprotective effect against norfloxacin phototoxicity", "setting": "Balb/c 3T3 fibroblasts", "result": "no effect"}]}, {"smiles": "CCn1cc(C(=O)O)c(=O)c2cc(F)c(N3CCNCC3)cc21", "note": "[NFX, norfloxacin]", "values": [{"measurement": "EC50", "setting": "Balb/c 3T3 fibroblasts; Mus musculus, BALB/c3T3, light or radiation study, No DHQ treatment, UVA exposure, read-out: NFX EC 50", "result": 55, "unit": "µg/mL"}]}, {"smiles": "CC(C)=CCC[C@](C)(O)C1CC=C(C)CC1", "note": "(stereo partly shown) [Bisabolol]", "values": [{"measurement": "MPO release", "setting": "human neutrophils [1]; Bisabolol 20 μM", "result": 810, "unit": "U/mL"}, {"measurement": "MPO release", "setting": "human neutrophils [1]; Bisabolol 40 μM", "result": 500, "unit": "U/mL"}, {"measurement": "MPO release", "setting": "human neutrophils [1]; Bisabolol 100 μM", "result": 250, "unit": "U/mL"}, {"measurement": "MPO release", "setting": "human neutrophils [1]; Bisabolol 200 μM", "result": 248, "unit": "U/mL"}]}, {"smiles": "CN(C)CCCN1c2ccccc2Sc2ccc(Cl)cc21", "note": "[CPZ, Chlorpromazine, reference compound]", "values": [{"measurement": "IC50", "setting": "NIH-3T3 fibroblasts; Mus musculus, NIH3T3, light or radiation study, control experiment (no treatment), UVA", "result": 0.33, "unit": "µg/mL"}]}, {"smiles": "O=C1c2c(O)cc(O)cc2O[C@H](c2ccc(O)c(O)c2)[C@H]1O", "note": "[DHQ, Dihydroquercetin]", "values": [{"measurement": "Photoprotective effect against norfloxacin phototoxicity", "setting": "Balb/c 3T3 fibroblasts", "result": "Dose-dependent photoprotective effect"}, {"measurement": "Protection against phototoxicity induced by chlorpromazine+UVA", "setting": "NIH-3T3 fibroblasts; NIH-3T3 fibroblasts, FIG. 4", "result": "efficiently protects"}, {"measurement": "Effect on reactive oxygen species (ROS) production", "setting": "human neutrophils [2]", "result": "Inhibitory effect"}]}]}
